The values that follow come from patent US11046697B2, “Compounds and compositions useful for treating disorders related to NTRK” (BLUEPRINT MEDICINES CORPORATION, priority 2015, dated 2021).

T1 sequence (P04629 440-796 limits assumed): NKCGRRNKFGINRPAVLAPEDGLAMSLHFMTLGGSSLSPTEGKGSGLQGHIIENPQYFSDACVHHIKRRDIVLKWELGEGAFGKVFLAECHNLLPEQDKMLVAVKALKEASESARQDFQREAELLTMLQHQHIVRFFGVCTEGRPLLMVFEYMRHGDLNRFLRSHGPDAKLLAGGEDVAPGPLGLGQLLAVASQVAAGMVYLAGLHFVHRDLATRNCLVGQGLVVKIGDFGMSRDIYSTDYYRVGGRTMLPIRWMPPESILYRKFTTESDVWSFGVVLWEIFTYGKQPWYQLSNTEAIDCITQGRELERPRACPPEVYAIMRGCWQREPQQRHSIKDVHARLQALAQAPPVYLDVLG

One experiment relates to KM12 Cliff (G595R) cell line. Put plainly: NTRK G595R mutant cellular assay (CellTiter-Glo growth inhibition). The conditions noted are these: 72 hr, CellTiter-Glo. In kind it is cell-based. On the procedure:
(§1) NTRK Wild Type and G595R Mutant Cellular Assays Protocol
(§2) KM12 wild type colon carcinoma cell line harboring the TPM3-NTRK1 fusion protein was obtained from the National Cancer Institute (NCI). This line has been previously shown to be dependent upon the NTRK activity derived from the NTRK fusion protein for growth and survival. […] Cells were first plated in 384-well plates at 1000 cells/well in complete media (10% FBS and 1% pen/strep) and incubated overnight at 37° C. Cells were then dosed with test articles at varying concentrations using the Bravo liquid handling system. […] Each compound was run in duplicate per plate. […] 72 hr after dosing, assay plates were developed using CellTiter-Glo (Promega) and resultant luminescence was read on the Envision plate reader. IC50 determinations were calculated using a 4-parameter curve fitting algorithm
A general note: ATP-based viability assays read luminescence as a measure of living cells.
As for `O=C(NCc1cc(F)ccc1F)c1n[nH]c2ncnc(NC3CCC(O)C3O)c12` (centres unmarked) [Compound 9], the 50% inhibitory concentration (IC50) is 0.1 to 1 µM.

For the molecule `O=C(NCc1cc(F)ccc1F)c1n[nH]c2ncnc(NC3CCC(O)C3O)c12` (centres unmarked) [Compound 10], the IC50 was over 1 µM.

In turn, `O=C(NCc1cc(F)ccc1F)c1n[nH]c2ncnc(NC3CC(O)CC3O)c12` (centres unmarked) [Compound 13] gave an IC50 of 0.1 to 1 µM.

`O=C(NCc1cc(F)ccc1F)c1n[nH]c2ncnc(NC3CC(F)CC3O)c12` (centres unmarked) [Compound 14] displayed an IC50 of 0.1 to 1 µM.

`O=C(NCc1cc(F)ccc1F)c1n[nH]c2ncnc(NC3CC(F)CC3O)c12` (centres unmarked) [Compound 15] yielded an IC50 of over 1 µM.

For `O=C(NCc1cc(F)ccc1F)c1n[nH]c2ncnc(NC3CC(F)CC3O)c12` (centres unmarked) [Compound 16], the IC50 was over 1 µM.

For `O=C(NCc1cc(F)ccc1F)c1n[nH]c2ncnc(NC3CCC(F)C3O)c12` (centres unmarked) [Compound 18], the IC50 was over 1 µM.

Regarding `Cc1ccc(F)cc1CN(C)C(=O)c1n[nH]c2ncnc(NC3CCC(O)C3O)c12` (centres unmarked) [Compound 23], the IC50 fell in the range of 0.01 to 0.1 µM.

`CCN(Cc1cc(F)ccc1F)C(=O)c1n[nH]c2ncnc(NC3CCCC3O)c12` (centres unmarked) [Compound 26] came in with a half-maximal inhibitory concentration (IC50) of 0.1 to 1 µM.

Regarding `O=C(NC(CO)c1cc(F)ccc1F)c1n[nH]c2ncnc(NC3CCCC3O)c12` (centres unmarked) [Compound 27], the IC50 fell in the range of 0.01 to 0.1 µM.

Consider `CN(Cc1cc(F)ccc1F)C(=O)c1n[nH]c2ncnc(NC3CCC(O)C3O)c12` (centres unmarked) [Compound 28], for which the IC50 lay within 0.01 to 0.1 µM.

Turning to `CC(NC(=O)c1n[nH]c2ncnc(NC3CCOCC3O)c12)c1cc(F)ccc1F` (centres unmarked) [Compound 31], the IC50 was 0.1 to 1 µM.

For the molecule `CN(Cc1cc(F)cc(F)c1)C(=O)c1n[nH]c2ncnc(NC3CCC(O)C3O)c12` (centres unmarked) [Compound 33], the IC50 lay within 0.01 to 0.1 µM.

Molecule `CC(NC(=O)c1n[nH]c2ncnc(NC3CCC(O)C3O)c12)c1cc(F)ccc1F` (centres unmarked) [Compound 34] displayed an IC50 of 0.1 to 1 µM.

`CC(NC(=O)c1n[nH]c2ncnc(NC3CCC(O)C3O)c12)c1cc(F)ccc1F` (centres unmarked) [Compound 35] displayed an IC50 of over 1 µM.

In the case of `O=C(NCc1cc(F)ccc1Cl)c1n[nH]c2ncnc(N[C@@H]3COCC[C@H]3O)c12` [Compound 37], the IC50 fell in the range of 0.1 to 1 µM.

Turning to `O=C(NCc1cc(F)cc(Cl)c1)c1n[nH]c2ncnc(NC3CCC(O)C3O)c12` (centres unmarked) [Compound 38], the IC50 is 0.1 to 1 µM.

Molecule `O=C(NCc1cc(F)cc(F)c1F)c1n[nH]c2ncnc(N[C@@H]3COCC[C@H]3O)c12` [Compound 40] showed an IC50 of 0.1 to 1 µM.

For the molecule `O=C(c1n[nH]c2ncnc(NC3CCOCC3O)c12)N1CC(F)CC1c1cc(F)ccc1OC(F)F` (centres unmarked) [Compound 238], the IC50 was 0.01 to 0.1 µM.

Still in this experiment, the particulars now being: Homo sapiens, KM12, 72 h, 72 hr, CellTiter-Glo.
As for `O=C(NCc1cc(F)ccc1F)c1n[nH]c2ncnc(N[C@@H]3C[C@@H](F)C[C@H]3O)c12` (relative stereo) [Compound 17], the IC50 was in the range of 0.1 to 1 µM.

For a further experiment, the system named is KM12 wild type colon carcinoma cell line harboring the TPM3-NTRK1 fusion protein. Put plainly: NTRK wild type cellular assay (CellTiter-Glo growth inhibition). The settings on record: 72 hr, CellTiter-Glo; read-out: KM12 (WT) IC50. In kind it is cell-based. As to the method:
as §1, §2
`O=C(NCc1cc(F)ccc1F)c1n[nH]c2ncnc(NC3CCC(O)C3O)c12` (centres unmarked) [Compound 9]: the IC50 lay in the range of 0.01 to 0.1 µM.

Regarding `O=C(NCc1cc(F)ccc1F)c1n[nH]c2ncnc(NC3CCC(O)C3O)c12` (centres unmarked) [Compound 10], the IC50 fell in the range of 0.1 to 1 µM.

Consider `O=C(NCc1cc(F)ccc1F)c1n[nH]c2ncnc(NC3CC(O)CC3O)c12` (centres unmarked) [Compound 13], for which the IC50 lay in the range of 0.01 to 0.1 µM.

As for `O=C(NCc1cc(F)ccc1F)c1n[nH]c2ncnc(NC3CC(F)CC3O)c12` (centres unmarked) [Compound 14], the IC50 lay in the range of 0.1 to 1 µM.

In the case of `O=C(NCc1cc(F)ccc1F)c1n[nH]c2ncnc(NC3CC(F)CC3O)c12` (centres unmarked) [Compound 15], the IC50 fell in the range of 0.1 to 1 µM.

On to `O=C(NCc1cc(F)ccc1F)c1n[nH]c2ncnc(NC3CC(F)CC3O)c12` (centres unmarked) [Compound 16], for which the IC50 was over 1 µM.

Take `O=C(NCc1cc(F)ccc1F)c1n[nH]c2ncnc(NC3CCC(F)C3O)c12` (centres unmarked) [Compound 18]: the IC50 lay within 0.1 to 1 µM.

Turning to `Cc1ccc(F)cc1CN(C)C(=O)c1n[nH]c2ncnc(NC3CCC(O)C3O)c12` (centres unmarked) [Compound 23], the IC50 lay within 0.01 to 0.1 µM.

On to `CCN(Cc1cc(F)ccc1F)C(=O)c1n[nH]c2ncnc(NC3CCCC3O)c12` (centres unmarked) [Compound 26], for which the IC50 lay in the range of 0.01 to 0.1 µM.

Consider `O=C(NC(CO)c1cc(F)ccc1F)c1n[nH]c2ncnc(NC3CCCC3O)c12` (centres unmarked) [Compound 27], for which the IC50 was 0.01 to 0.1 µM.

Take `CN(Cc1cc(F)ccc1F)C(=O)c1n[nH]c2ncnc(NC3CCC(O)C3O)c12` (centres unmarked) [Compound 28]: the IC50 lay within 0.01 to 0.1 µM.

For `CC(NC(=O)c1n[nH]c2ncnc(NC3CCOCC3O)c12)c1cc(F)ccc1F` (centres unmarked) [Compound 31], the IC50 is 0.1 to 1 µM.

For the molecule `CN(Cc1cc(F)cc(F)c1)C(=O)c1n[nH]c2ncnc(NC3CCC(O)C3O)c12` (centres unmarked) [Compound 33], the IC50 lay in the range of 0.01 to 0.1 µM.

Consider `CC(NC(=O)c1n[nH]c2ncnc(NC3CCC(O)C3O)c12)c1cc(F)ccc1F` (centres unmarked) [Compound 34], for which the IC50 was in the range of 0.01 to 0.1 µM.

Consider `CC(NC(=O)c1n[nH]c2ncnc(NC3CCC(O)C3O)c12)c1cc(F)ccc1F` (centres unmarked) [Compound 35], for which the IC50 was in the range of 0.1 to 1 µM.

Take `O=C(NCc1cc(F)ccc1Cl)c1n[nH]c2ncnc(N[C@@H]3COCC[C@H]3O)c12` [Compound 37]: the IC50 is 0.1 to 1 µM.

As to `O=C(NCc1cc(F)cc(Cl)c1)c1n[nH]c2ncnc(NC3CCC(O)C3O)c12` (centres unmarked) [Compound 38], the IC50 was in the range of 0.1 to 1 µM.

Take `O=C(NCc1cc(F)cc(F)c1F)c1n[nH]c2ncnc(N[C@@H]3COCC[C@H]3O)c12` [Compound 40]: the IC50 is 0.1 to 1 µM.

Regarding `O=C(c1n[nH]c2ncnc(NC3CCOCC3O)c12)N1CC(F)CC1c1cc(F)ccc1OC(F)F` (centres unmarked) [Compound 238], the IC50 fell in the range of 0.01 to 0.1 µM.

Staying with this experiment, now noted: Homo sapiens, KM12, 72 h, 72 hr, CellTiter-Glo; read-out: KM12 (WT) IC50.
Turning to `O=C(NCc1cc(F)ccc1F)c1n[nH]c2ncnc(N[C@@H]3C[C@@H](F)C[C@H]3O)c12` (relative stereo) [Compound 17], the IC50 is 0.01 to 0.1 µM.

The next experiment has as its target T1, wild type NTRK1 enzyme (Homo sapiens, UniProt P04629).
T1 construct: purchased BPS Bioscience 40280
As to the kind of experiment: NTRK1 Wild Type Assay at 1 mM ATP. The class given is biochemical. The settings on record: 1 mM ATP; read-out: Enz NTRK1 IC50. As to the method: NTRK1 Wild Type Assay at 1 mM ATP
The reaction was stopped by the addition of 70 μL of Stop buffer (100 mM HEPES pH 7.5, 0.015% Brij 35, 35 mM EDTA and 0.2% of Coating Reagent 3 (Caliper Lifesciences)). The plate was then read on a Caliper EZReader 2 (protocol settings: −1.7 psi, upstream voltage −500, downstream voltage −3000, post sample sip 35s).
With `O=C(NCc1cc(F)ccc1F)c1n[nH]c2ncnc(N[C@@H]3C[C@@H](F)C[C@H]3O)c12` (relative stereo) [Compound 17], the IC50 was 0.01 to 0.1 µM.

Take `O=C(NCc1cc(F)ccc1F)c1n[nH]c2ncnc(NC3CCC(O)C3O)c12` (centres unmarked) [Compound 9]: the IC50 was 0.01 to 0.1 µM.

For the molecule `O=C(NCc1cc(F)ccc1F)c1n[nH]c2ncnc(NC3CCC(O)C3O)c12` (centres unmarked) [Compound 10], the IC50 was 0.1 to 1 µM.

As for `O=C(NCc1cc(F)ccc1F)c1n[nH]c2ncnc(NC3CC(O)CC3O)c12` (centres unmarked) [Compound 13], the IC50 was 0.01 to 0.1 µM.

Regarding `O=C(NCc1cc(F)ccc1F)c1n[nH]c2ncnc(NC3CC(F)CC3O)c12` (centres unmarked) [Compound 14], the IC50 was 0.1 to 1 µM.

On to `O=C(NCc1cc(F)ccc1F)c1n[nH]c2ncnc(NC3CC(F)CC3O)c12` (centres unmarked) [Compound 15], for which the IC50 is 0.1 to 1 µM.

As to `O=C(NCc1cc(F)ccc1F)c1n[nH]c2ncnc(NC3CC(F)CC3O)c12` (centres unmarked) [Compound 16], the IC50 fell in the range of 0.1 to 1 µM.

Regarding `O=C(NCc1cc(F)ccc1F)c1n[nH]c2ncnc(NC3CCC(F)C3O)c12` (centres unmarked) [Compound 18], the IC50 was in the range of 0.1 to 1 µM.

Take `Cc1ccc(F)cc1CN(C)C(=O)c1n[nH]c2ncnc(NC3CCC(O)C3O)c12` (centres unmarked) [Compound 23]: the IC50 was under 0.01 µM.

In the case of `CCN(Cc1cc(F)ccc1F)C(=O)c1n[nH]c2ncnc(NC3CCCC3O)c12` (centres unmarked) [Compound 26], the IC50 fell in the range of 0.01 to 0.1 µM.

On to `O=C(NC(CO)c1cc(F)ccc1F)c1n[nH]c2ncnc(NC3CCCC3O)c12` (centres unmarked) [Compound 27], for which the IC50 was under 0.01 µM.

For the molecule `CN(Cc1cc(F)ccc1F)C(=O)c1n[nH]c2ncnc(NC3CCC(O)C3O)c12` (centres unmarked) [Compound 28], the IC50 is under 0.01 µM.

As to `CC(NC(=O)c1n[nH]c2ncnc(NC3CCOCC3O)c12)c1cc(F)ccc1F` (centres unmarked) [Compound 31], the IC50 lay within 0.1 to 1 µM.

As to `CN(Cc1cc(F)cc(F)c1)C(=O)c1n[nH]c2ncnc(NC3CCC(O)C3O)c12` (centres unmarked) [Compound 33], the IC50 fell in the range of 0.01 to 0.1 µM.

For the molecule `CC(NC(=O)c1n[nH]c2ncnc(NC3CCC(O)C3O)c12)c1cc(F)ccc1F` (centres unmarked) [Compound 34], the IC50 was in the range of 0.01 to 0.1 µM.

`CC(NC(=O)c1n[nH]c2ncnc(NC3CCC(O)C3O)c12)c1cc(F)ccc1F` (centres unmarked) [Compound 35]: the IC50 fell in the range of 0.1 to 1 µM.

In the case of `O=C(NCc1cc(F)ccc1Cl)c1n[nH]c2ncnc(N[C@@H]3COCC[C@H]3O)c12` [Compound 37], the IC50 is 0.01 to 0.1 µM.

`O=C(NCc1cc(F)cc(Cl)c1)c1n[nH]c2ncnc(NC3CCC(O)C3O)c12` (centres unmarked) [Compound 38]: the IC50 was in the range of 0.1 to 1 µM.

For `O=C(NCc1cc(F)cc(F)c1F)c1n[nH]c2ncnc(N[C@@H]3COCC[C@H]3O)c12` [Compound 40], the IC50 lay within 0.01 to 0.1 µM.

The IC50 is the concentration that inhibits the measured activity by half.
